Assays:
[1] = molecular target: T1, recombinant human 5-HT6 receptors (Homo sapiens, UniProt P50406); assay: Competitive radioligand binding ([3H] Lysergic acid diethylamide) to membranes of HeLa cells expressing recombinant human 5-HT6 receptors; conditions: 1.5 nM [3H] Lysergic acid diethylamide, 120 min, 37° C., HeLa cell membranes; for IC50: read-out: IC50 of serotonin 5-HT6 receptor inhibition in the setting of competitive binding; for Ki: read-out: Ki of serotonin 5-HT6 receptor inhibition in the setting of competitive binding
T1 construct: expressed in transfected cells; host or cells: HeLa (membrane preparation)
Description: Activity determination of serotonin 5-HT6 receptor antagonists of the general formula 1 in the setting of competitive binding to serotonin 5-HT6 receptors.
Screening of disclosed compounds for their potential ability to interact with serotonin 5-HT6 receptors was carried out by method of radioligand binding. For this purpose membrane species were prepared from expressing recombinant human 5-HT6 receptors HeLa cells by means of their homogenization in glass homogenizer with subsequent separation of plasmatic membranes from cell nucli, mitochondria's and cell wreckages by differential centrifugation. […] Mol Pharmacol. 43:320-327, 1993]. In the preferred embodiment membrane preparations were incubated with radioligand (1.5 nM [^3H] Lysergic acid diethylamide) without and in the presence of investigated compounds for 120 min at 37° C. in medium consisting of […], pH 7.4, 150 mM NaCl, 2 mM Ascorbic Acid, 0.001% BSA. After incubation the samples were filtered in vacuo on glass-microfiber filters G/F (Millipor, USA), filters were washed three times with cold solution of medium and radioactivity was measured by scintillation counter MicroBeta 340 (PerkinElmer, USA). Nonspecific binding which made up 30% of overall binding was determined by incubation of membrane preparations with radioligand in the presence of 5 μM Serotonin (5-HT). Methiothepin was used as positive control. Binding of tested compounds with the receptor was determined by their ability to displace the radioligand and expressed in percent of displacement. The percent of displacement was calculated according to the following equation:
[formula] wherein: TA—was overall radioactivity in the presence of radioligand only, CA—was radioactivity in the presence of radioligand and tested compound and NA—was radioactivity in the presence of radioligand and Serotonin (5 μM).
Table 4 presents the test results for some serotonin 5-HT6 receptor antagonists of general formulas 1 and 2 in the setting of competitive binding to serotonin 5-HT6 receptors, testifying their high activity towards serotonin 5-HT6 receptors.

[2] = tested on: memory disturbed by Scopolamine; assay: Passive Avoidance of mice in the Shuttle Chamber, memory disturbed by Scopolamine; type: in vivo; conditions: aged male BALB/c mice; Scopolamine 0.3 mg/kg, injected 30 minutes before training; retest in 22-24 hours
Description: A shuttle chamber (Ugo Basile, Italy) consisted of two sections was used. The walls of one section were opaque while the other section had transparent cover. The sections were connected through a hole which could be overlapped by vertical door. The floor was made of transverse metal bars on which DC current impulses could be fed. Experiments were carried out in aged male mice of BALB/c line weighing 20-24 grams.
On the first day of testing 30 minutes before training mice were injected intraintestinally with physiological solutions of Scopolamine (0.3 mg/kg) or Scopolamine in combination with active ingredient 1.1(1). Each group consisted of at least 8 animals. Animals were placed in light section, and latent period of the first entry into dark chamber was registered. Then vertical door was closed and the animal was punished by 0.6 mA DC current for 3 seconds. After that the animal was taken back to its homecage. In 22-24 hours the same animal was placed again in light section of the shuttle chamber and latent period of its first entry into dark section, the total time of its stay in light section and the number of entries into dark section, was registered. Each monitoring lasted for 5 minutes.
Testing was carried out during the day time in isolated laboratory using white noise at level of about 70 decibel above human hearing threshold. […]

serotonin 5-HT6 receptor = molecular target: T2, serotonin 5-HT6 receptor (Homo sapiens, UniProt P50406); assay: Functional assay: antagonism of serotonin-induced intracellular cAMP (LANCE cAMP) in HEK 293 cells expressing 5-HT6 receptor; type: cell-based; conditions: HEK 293 cells with expressed 5-HT6 receptor, read-out: IC50 of serotonin 5-HT6 receptor inhibition in the setting of functional assay
T2 construct: expressed in transfected cells; host or cells: HEK 293
Description: Determination of antagonistic activity of compounds of general formula 1 towards 5-HT6 receptors. Compounds of general formula 1 were tested for their ability to prevent 5-HT6 receptors activation by serotonin. HEK 293 cells (cells of human embryo's kidney) with artificially expressed 5-HT6 receptor, activation of which by serotonin leads to increasing the concentration of intracellular cAMP were used. The content of intracellular cAMP was determined using reagent kit LANCE cAMP (PerkinElmer) according to the method described by the manufacturer of the kit [http://las.perkinelmer.com/content/Manuals/MAN_LANCEcAMP384KitUser.pdf]. Effectiveness of compounds was estimated by their ability to reduce the content of intracellular cAMP induced by serotonin. Table 3 presents ICso values of serotonin 5-HT6 receptor inhibition by antagonists of general formula 1 and 2 in the setting of functional assay. The data given testify their high antagonistic activity.

[3] = tested on: memory disturbed by MK-801; assay: Passive Avoidance of mice in the Shuttle Chamber, memory disturbed by MK-801; type: in vivo; conditions: MK-801 0.1 mg/kg, injected 30 minutes before training
Description: The testing was carried out as in example 7. On the first day of testing 30 minutes before training the mice were injected intraintestinally with physiological solution of MK-801 (0.1 mg/kg). Concurrently, physiological solution of MK-801 in combination with active ingredient 1.1(1) was injected intraintestinally to independent groups of mice before training.

[4] = tested on: mice behavior in elevated plus maze; assay: Mice Behavior in the Elevated Plus Maze (anxiolytic action); type: in vivo; conditions: five minutes
Excerpt: Anxiolytic (tranquilizing) action of compounds of general formulas 1 and 2 in the test “Mice Behavior in the Elevated Plus Maze”. The length of each arm of the maze is 30 cm, width is 5 cm, and height of walls is 15 cm. Two opposite arms are closed from both sides and end faces by transparent walls, the other two arms are lit and opened. A mouse was placed in the center of maze, and for the next five minutes the number of entries into opened and closed arms and the time spent in each type of arms was registered. […] The animals usually avoid opened arms (the preference index is between 0.2 and 0.3). Compounds with tranquilizing action increase this index up to 0.5-0.6 or even more and reduce the number of defecations without changing the overall motion activity of the mice (the total number of entries to the arms).

T2 sequence (P50406 whole entry): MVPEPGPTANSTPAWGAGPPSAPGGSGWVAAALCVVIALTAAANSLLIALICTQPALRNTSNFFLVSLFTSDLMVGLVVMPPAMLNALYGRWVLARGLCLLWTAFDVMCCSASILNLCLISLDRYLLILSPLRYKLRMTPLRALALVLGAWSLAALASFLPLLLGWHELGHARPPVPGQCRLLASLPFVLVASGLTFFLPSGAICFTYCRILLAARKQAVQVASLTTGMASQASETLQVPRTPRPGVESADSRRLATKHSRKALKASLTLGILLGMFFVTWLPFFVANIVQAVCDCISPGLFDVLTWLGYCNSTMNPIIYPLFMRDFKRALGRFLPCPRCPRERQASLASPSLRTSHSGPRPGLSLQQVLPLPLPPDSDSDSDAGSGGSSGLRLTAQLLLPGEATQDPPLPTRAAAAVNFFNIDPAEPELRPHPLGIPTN
T1 sequence (P50406 whole entry): as above

| IC50 [1] [nM] | Ki [1] [nM] | IC50 (serotonin 5-HT6 receptor) [nM] | SMILES | Nootropic action (enhancement of memory disturbed by Scopolamine) [2] | Nootropic action (enhancement of memory disturbed by MK-801) [3] | Anxiolytic (tranquilizing) action [4] |
| --- | --- | --- | --- | --- | --- | --- |
| 0.157 | 0.073 | 4.8 | CNc1nn2c3c(cnc2c1S(=O)(=O)c1ccccc1)CCC3 [1.1(1), 2-methylamino-3-(phenylsulfonyl)-7,8-dihydro-6H-cyclopenta[e]pyrazolo[1,5-a]pyrimidine] | nootropic action | nootropic effect | anxiolytic (tranquilizing) action which is comparable with the activity of Buspirone and Lorasepam |
| 0.436 | 0.202 | 7 | CNc1nn2c3c(c(C)nc2c1S(=O)(=O)c1ccccc1)CCC3 [1.1(3), 5-methyl-2-methylamino-3-(phenylsulfonyl)-7,8-dihydro-6H-cyclopenta[e]pyrazolo[1,5-a]pyrimidine] | – | – | – |
| 0.241 | 0.112 | 4.4 | CNc1nn2c3c(cnc2c1S(=O)(=O)c1ccccc1)CCCC3 [1.2(1), 2-methylamino-3-(phenylsulfonyl)-6,7,8,9-tetrahydrocyclohexa[e]pyrazolo[1,5-a]pyrimidine] | – | – | – |
| 1.05 | 0.49 | – | CNc1nn2c3c(c(C)nc2c1S(=O)(=O)c1ccccc1)CCCC3 [1.2(3), 5-methyl-2-methylamino-(3-phenylsulfonyl)-6,7,8,9-tetrahydrocyclohexa[e]pyrazolo[1,5-a]pyrimidine] | – | – | – |
| 1.07 | 0.499 | 7.5 | CNc1nn2cc3c(nc2c1S(=O)(=O)c1ccccc1)CCCC3 [2(1)] | – | – | – |
| 0.551 | 0.256 | 15.5 | CNc1nn2c(C)c3c(nc2c1S(=O)(=O)c1ccccc1)CCCC3 [2(2)] | – | – | – |

— patent US8471009B2, “(EN) 2-alkylamino-3-arylsulfonyl-cycloalcano [e OR d] pyrazolo [1,5-A]pyrimidines / antagonists of serotonin 5-HT6 receptors, methods for the production and the use thereof” (priority 2008, dated 2013)
